For series [1] the following is noted: before the X-ray changes; cited from earlier work.
The conditions of series [2]: cited from earlier work; for annual risk of TD as fraction of the risk associated with haloperidol: relative to haloperidol.
For series [3] the following is noted: combined data from many studies; cited from earlier work.
The target in a further series is D2 receptor (Homo sapiens, UniProt P14416). The following applies: relative to risperidone and olanzapine; cited from earlier work.
For series [4] the following is noted: antipsychotic alone; cited from earlier work.

The structures appear in SMILES notation.

Chain of D2 receptor (P14416 whole entry): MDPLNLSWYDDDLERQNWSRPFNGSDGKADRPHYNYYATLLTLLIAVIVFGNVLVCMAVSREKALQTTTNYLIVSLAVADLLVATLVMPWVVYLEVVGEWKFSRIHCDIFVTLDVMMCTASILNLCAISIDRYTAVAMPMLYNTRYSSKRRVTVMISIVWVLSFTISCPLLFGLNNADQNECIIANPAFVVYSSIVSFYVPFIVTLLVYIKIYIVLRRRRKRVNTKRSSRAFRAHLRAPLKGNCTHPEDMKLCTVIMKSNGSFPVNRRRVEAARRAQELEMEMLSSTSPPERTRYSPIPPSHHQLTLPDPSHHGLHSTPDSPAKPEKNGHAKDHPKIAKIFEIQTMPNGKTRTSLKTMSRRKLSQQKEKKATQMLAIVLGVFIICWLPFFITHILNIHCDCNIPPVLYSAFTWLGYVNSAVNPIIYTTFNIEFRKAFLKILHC

As for `N[C@@H]1CONC1=O` [DCS], in series [1], the antidepressant effect result was “prompt antidepressant effects”.

Regarding `Cc1cc2c(s1)Nc1ccccc1N=C2N1CCN(C)CC1` [olanzapine], in series [2] (all patients), the “One year risk of TD” value is 0.52%. Besides, in series [2], the “annual risk of TD as fraction of the risk associated with haloperidol” value was “about 1/12”. In series [3], the “relative risk of drug-induced acute EPS in declining order” value (shortened to “relative risk of drug-induced acute EPS”) is recorded as “risperidone >ziprasidone >=olanzapine >quetiapine”.

On to `OCCOCCN1CCN(C2=Nc3ccccc3Sc3ccccc32)CC1` [quetiapine], for which, where the note is “hypothetical cases”, the adverse effect entry is reported as “lightheadedness”. Further, the “time until suicidality vanishes” value (second hypothetical case, MDD, quetiapine 50 mg added to paroxetine 20 mg q d) turned out to be 24 h. The “dissociation from the dopamine receptor” value at D2 receptor is on record as “fast dissociation”. Moreover, the “relative risk of drug-induced acute EPS” value in series [3] is listed as “risperidone >ziprasidone >=olanzapine >quetiapine”.

With `Cc1nc2n(c(=O)c1CCN1CCC(c3noc4cc(F)ccc34)CC1)CCCC2` [risperidone], the “annual risk of TD as fraction of the risk associated with haloperidol” value in series [2] was “⅙”. Further, the “activity in the chronic mild stress (CMS) model” value in series [4] is “ineffective”.

With `O=C1Cc2cc(CCN3CCN(c4nsc5ccccc45)CC3)c(Cl)cc2N1` [ziprasidone], in series [3], the “relative risk of drug-induced acute EPS” value is reported as “risperidone >ziprasidone >=olanzapine >quetiapine”.
